The record followed here is US20260008760A1, “DIPEPTIDYL PEPTIDASE 1 INHIBITORS AND USES THEREOF” (Insmed Incorporated, priority 2024, published 2026).

For one assay, the target named is T1, active mouse DPP1 enzyme (Mus musculus, UniProt P97821).
T1 construct: Each subunit is composed of an N-terminal fragment, a heavy chain and a light chain; purchased R&D Systems
Kind of assay: Mouse DPP1 Enzyme IC50 Assay. It counts as biochemical. The conditions noted are these: active mouse DPP1 enzyme, H-Gly-Arg-AMC substrate, 10 minutes pre-incubation at 37° C., pH 5.5; average of n runs; read-out: Avg. IC50 (Mouse DPP1 enzyme IC50 value ranges). As for the experimental part:
Example 96: Mouse DPP1 Enzyme IC50 Assay
Test articles were applied to active mouse DPP1 enzyme (R&D Systems; Minneapolis, MN) in Assay Buffer (50 mM MES pH 5.5, 50 mM NaCl, 5 mM DTT) in a total reaction volume of 125 μL. 25 μL of compound in Assay Buffer plus […] was first added to 50 μL of active mouse DPP1 enzyme at a concentration of 62.5 pg/μL and allowed to pre-incubate for 10 minutes at 37° C. after which 50 μL of […] H-Gly-Arg-AMC substrate (Bachem; St. Torrance, CA) was added, giving final substrate concentration of 400 µM and a final DMSO concentration of […]. Substrate cleavage was measured for 90 minutes at 37° C., with fluorescence at Excitation/Emission 350/450 nm measured every 5 minutes. DPP1 concentration was interpolated based on its activity relative to a standard curve of recombinant active mouse DPP enzyme. IC50 values for each compound were calculated via the XLFit (IDBS Version 5.3.1.3) Add-On to Microsoft Excel using the four parameter fit equation y=(A+((B−A)/(1+((C/x)^D)))), which appears as equation number 205 (4 Parameter Logistic Model or Sigmoidal Dose-Response Model) in XLFit. Default constraints were used for each Parameter. IC50 was defined as the compound concentration at which 50% of enzyme activity was inhibited when compared to the no-compound control.
In Table 2, *** represent average IC50≤5 nM, ** represents average IC50 in the range of 5-20 nM, and * represents average IC50 in the range of ≥20 nM, where the designations were made solely based on the average value without taking into account of the standard deviations.

Assay [1] has as its target T2, DPP1 in HL-60 cells (Homo sapiens, UniProt P53634). The experiment in a line: DPP1 Cell IC50 assay. The conditions noted are these: 60 min pre-incubation, H-Gly-Phe-AFC substrate, average of n runs, read-out: Avg. IC50 (DPP1 Cell IC50 value ranges). It counts as cell-based. More on the design: host or cells: HL-60 cells. The method in brief:
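Intracellular DPP1 activity read as AFC fluorescence (Ex/Em 400/505 nm) after 30 min with H-Gly-Phe-AFC (500 μM stock), following 60 min compound pre-incubation at 37° C with HL-60 cells at 5×10^5 live cells per mL in PBS. IC50 by 4-parameter fit against DMSO-only controls.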

The target in assay [2] is T3, human DPP1 enzyme (Homo sapiens, UniProt P53634). The experiment in a line: Human DPP1 Enzyme IC50 Assay. As to conditions: activated recombinant human DPP1, 400 μM H-Gly-Arg-AMC, 10 minutes pre-incubation at 37° C., pH 6.0; average of n runs; read-out: Avg. IC50 (Human DPP1 enzyme IC50 value ranges). More on the design: was first proteolytically processed into its mature form using recombinant human cathepsin L; purchased R&D Systems. Format: biochemical. Summed up:
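IC50 came from a four-parameter fit of activity relative to no-compound control, with fluorescence (Ex 350/Em 450 nm) read every 5 min for 90 min at 37 °C using 400 μM final H-Gly-Arg-AMC. Cathepsin L-matured human recombinant DPP1 was preincubated 10 min with compound at pH 6.0 (MES, DTT, 1% DMSO).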
Target sequence in this assay (P53634 25-134 limits assumed): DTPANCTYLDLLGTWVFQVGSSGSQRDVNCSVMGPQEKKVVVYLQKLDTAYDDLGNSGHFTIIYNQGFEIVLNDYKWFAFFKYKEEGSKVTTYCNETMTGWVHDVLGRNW
Target sequence in this assay (P53634 231-394 limits assumed): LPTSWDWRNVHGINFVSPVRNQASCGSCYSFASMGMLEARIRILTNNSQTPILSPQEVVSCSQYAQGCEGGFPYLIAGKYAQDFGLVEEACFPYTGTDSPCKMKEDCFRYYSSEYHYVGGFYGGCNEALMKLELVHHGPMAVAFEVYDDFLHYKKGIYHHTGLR
Target sequence in this assay (P53634 395-463 limits assumed): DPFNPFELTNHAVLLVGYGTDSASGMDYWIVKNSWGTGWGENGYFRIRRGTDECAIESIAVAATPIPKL

Assay [3] addresses T2, DPP1 in HL-60 cells. The experiment in a line: DPP1 Cell Single-Point Percent Inhibition Testing. It counts as cell-based. More on the design: host or cells: HL-60 cells. As to conditions: final compound concentration 5 nM, n = 1. The method in brief:
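HL-60 cells in unsupplemented RPMI preincubated 60 min at 37 °C with test article (5 nM final, 0.1% DMSO), then given cell-permeable H-Gly-Phe-AFC (100 μM final) for 30 min. Fluorescence at 400/505 nm; percent inhibition versus vehicle after subtracting cell-free background and 10 μM brensocatib non-specific signal.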

Assay [4] deals with T3, human DPP1 enzyme. Kind of assay: Human DPP1 Enzyme Single-Point Percent Inhibition Testing (HL-60 lysate). It counts as biochemical. As to conditions: final compound concentration of 10 nM, 400 μM H-Gly-Arg-AMC, n = 1. More on the design: A crude lysate of HL-60 cells (ATCC; Manassas, VA) was used as a source of human DPP1 enzyme; host or cells: HL-60 cells (crude lysate). Summed up: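 Enzyme source was HL-60 cell lysate in MES pH 6.0 buffer with NaCl and DTT, pre-incubated 10 min at 37° C with 10 nM compound (final, 1% DMSO). Cleavage of 400 μM H-Gly-Arg-AMC was followed at 350/450 nm over 90 min at 37° C, and percent inhibition was taken against vehicle wells.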
Target sequence in this assay (P53634 25-463): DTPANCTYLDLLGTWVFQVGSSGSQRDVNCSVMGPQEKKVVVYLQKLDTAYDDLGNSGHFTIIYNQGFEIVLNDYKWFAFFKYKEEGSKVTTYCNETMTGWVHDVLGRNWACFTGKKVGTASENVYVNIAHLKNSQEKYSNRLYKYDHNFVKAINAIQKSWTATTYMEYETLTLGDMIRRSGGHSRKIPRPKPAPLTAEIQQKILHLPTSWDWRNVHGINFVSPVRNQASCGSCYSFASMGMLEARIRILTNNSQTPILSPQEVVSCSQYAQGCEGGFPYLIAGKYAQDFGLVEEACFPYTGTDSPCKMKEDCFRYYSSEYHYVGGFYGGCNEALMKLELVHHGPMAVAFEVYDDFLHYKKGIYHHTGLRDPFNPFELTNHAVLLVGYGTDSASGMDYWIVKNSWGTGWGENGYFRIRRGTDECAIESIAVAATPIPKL

Several values for one entry are separate records, joined by “and”; a condition that tells them apart may be missing. Equal entries are not always repeated.

T2 sequence (P53634 25-463): as above
T1 sequence (P97821 25-134 limits assumed): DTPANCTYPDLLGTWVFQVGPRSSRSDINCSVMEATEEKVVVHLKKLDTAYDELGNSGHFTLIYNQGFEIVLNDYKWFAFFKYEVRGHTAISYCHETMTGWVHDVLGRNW
T1 sequence (P97821 231-393 limits assumed): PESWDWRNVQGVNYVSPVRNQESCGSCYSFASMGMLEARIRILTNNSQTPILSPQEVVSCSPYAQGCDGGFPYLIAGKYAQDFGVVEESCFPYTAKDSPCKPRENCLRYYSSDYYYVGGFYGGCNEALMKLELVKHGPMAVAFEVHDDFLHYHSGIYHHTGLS
T1 sequence (P97821 394-462 limits assumed): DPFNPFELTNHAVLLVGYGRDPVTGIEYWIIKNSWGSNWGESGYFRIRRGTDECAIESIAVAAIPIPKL

On to `N#CC(Cc1cc2c(cc1F)-c1ccc(F)cc1CO2)NC(=O)[C@@H]1CNCCCCO1` (mixture of isomers) [Compound B16, (2S)—N-(1-cyano-2-{2,8-difluoro-6H-benzo[c]chromen-3-yl}ethyl)-1,4-oxazocane-2-carboxamide], for which the values for the IC50 at active mouse DPP1 enzyme, at DPP1 in HL-60 cells [1] and on human DPP1 enzyme [2] were over 20 nM, over 2.5 nM and over 15 nM, respectively.
Take `N#Cc1ccc2c(c1)COc1cc(CC(C#N)NC(=O)[C@@H]3CNCCCCO3)c(F)cc1-2` (single isomer, unassigned) [Compound B9]: the 50% inhibitory concentration (IC50) at active mouse DPP1 enzyme was 5 to 20 nM; at DPP1 in HL-60 cells [1], 1 to 2.5 nM; at human DPP1 enzyme [2] it was 5 to 15 nM and > 15 nM.
As for `N#C[C@H](Cc1ccc(-c2ccc(S(F)(F)(F)(F)F)cc2)cc1)NC(=O)[C@@H]1CNCCCO1` [Compound 6, (S)—N—((S)-1-cyano-2-(4′-(pentafluoro-16-sulfaneyl)-[1,1′-biphenyl]-4-yl)ethyl)-1,4-oxazepane-2-carboxamide], the IC50 is over 20 nM at active mouse DPP1 enzyme, over 2.5 nM on DPP1 in HL-60 cells [1] and over 15 nM on human DPP1 enzyme [2].
For `N#Cc1ccc(-c2ccc(C[C@@H](C#N)NC(=O)[C@@H]3CNCCCO3)cc2)cc1C(F)(F)F` [Compound 7, (2S)—N-[(1S)-1-cyano-2-[4′-cyano-3′-(trifluoromethyl)-[1,1′-biphenyl]-4-yl]ethyl]-1,4-oxazepane-2-carboxamide] the same measures were over 20 nM, over 2.5 nM and over 15 nM.
On the same counts, the results for `N#Cc1ccc(-c2ccc(C[C@@H](C#N)NC(=O)[C@@H]3CNCCCO3)cc2)cc1C1CC1` [Compound 8, (2S)—N-[(1S)-1-cyano-2-{4′-cyano-3′-cyclopropyl-[1,1′-biphenyl]-4-yl}ethyl]-1,4-oxazepane-2-carboxamide] are over 20 nM, over 2.5 nM and over 15 nM.
On the same counts, the results for `CN1CCN(Cc2ccc(-c3ccc(C[C@@H](C#N)NC(=O)[C@@H]4CNCCCO4)cc3)cc2)CC1` [Compound 9, (2S)—N-[(1S)-1-cyano-2-{4′-[(4-methylpiperazin-1-yl)methyl]-[1,1′-biphenyl]-4-yl}ethyl]-1,4-oxazepane-2-carboxamide] are over 20 nM, over 2.5 nM and over 15 nM.
`Cc1nc(-c2ccc(C[C@@H](C#N)NC(=O)[C@@H]3CNCCCO3)cc2)sc1C#N` [Compound 10, (2S)—N-[(1S)-1-cyano-2-[4-(5-cyano-4-methyl-1,3-thiazol-2-yl)phenyl]ethyl]-1,4-oxazepane-2-carboxamide]: the half-inhibitory concentration (IC50) on active mouse DPP1 enzyme is over 20 nM; at DPP1 in HL-60 cells [1] it was over 2.5 nM; at human DPP1 enzyme [2], over 15 nM.
For `Cc1csc(-c2ccc(C[C@@H](C#N)NC(=O)[C@@H]3CNCCCO3)cc2)n1` [Compound 11, (2S)—N-[(1S)-1-cyano-2-[4-(4-methyl-1,3-thiazol-2-yl)phenyl]ethyl]-1,4-oxazepane-2-carboxamide] the same measures were over 20 nM, over 2.5 nM and over 15 nM.
For `N#C[C@H](Cc1ccc(-c2ccc(C(F)(F)F)cc2)cc1)NC(=O)[C@@H]1CNCCCO1` [Compound 12, (2S)—N-[(1S)-1-cyano-2-[4′-(trifluoromethyl)-[1,1′-biphenyl]-4-yl]ethyl]-1,4-oxazepane-2-carboxamide] the same measures were over 20 nM, over 2.5 nM and over 15 nM.
Take `CN1CCC2(CC1)OC(=O)c1ccc(-c3ccc(C[C@@H](C#N)NC(=O)[C@@H]4CNCCCO4)cc3)cc12` [Compound 14, (2S)—N-[(1S)-1-cyano-2-(4-{1′-methyl-3-oxospiro[2-benzofuran-1,4′-piperidin]-6-yl}phenyl)ethyl]-1,4-oxazepane-2-carboxamide]: the IC50 at active mouse DPP1 enzyme is 5 to 20 nM; at DPP1 in HL-60 cells [1], over 2.5 nM; at human DPP1 enzyme [2], 5 to 15 nM.
On the same counts, the results for `CN1CCN(S(=O)(=O)c2ccc(-c3ccc(C[C@@H](C#N)NC(=O)[C@@H]4CNCCCO4)cc3)cc2)CC1` [Compound 20, (2S)—N-[(1S)-1-cyano-2-[4′-(4-methylpiperazin-1-ylsulfonyl)-[1,1′-biphenyl]-4-yl]ethyl]-1,4-oxazepane-2-carboxamide] are over 20 nM, over 2.5 nM and over 15 nM.
On the same counts, the results for `CN1CCN(S(=O)(=O)c2ccc(-c3ccc(C[C@@H](C#N)NC(=O)[C@@H]4CNCCCO4)c(F)c3)cc2)CC1` [Compound 21, (2S)—N-[(1S)-1-cyano-2-[3-fluoro-4′-(4-methylpiperazin-1-ylsulfonyl)-[1,1′-biphenyl]-4-yl]ethyl]-1,4-oxazepane-2-carboxamide] are over 20 nM, over 2.5 nM and over 15 nM.
For `CN1CCC2(CCc3cc(-c4ccc(C[C@@H](C#N)NC(=O)[C@@H]5CNCCCO5)cc4)ccc32)CC1` [Compound 26, (2S)—N-[(1S)-1-cyano-2-(4-{1′-methyl-2,3-dihydrospiro[indene-1,4′-piperidin]-5-yl}phenyl)ethyl]-1,4-oxazepane-2-carboxamide] the same measures were over 20 nM, over 2.5 nM and over 15 nM.
Turning to `CN1C(=O)C2(CCCN(C3COC3)C2)c2cc(-c3ccc(C[C@@H](C#N)NC(=O)[C@@H]4CNCCCO4)cc3)ccc21` (stereo partly drawn) [Compound 28, (2S)—N-[(1S)-1-cyano-2-{4-[1-methyl-1′-(oxetan-3-yl)-2-oxospiro[indole-3,3′-piperidin]-5-yl]phenyl}ethyl]-1,4-oxazepane-2-carboxamide], the concentration for half-maximal inhibition (IC50) at active mouse DPP1 enzyme is over 20 nM; on DPP1 in HL-60 cells [1] it was over 2.5 nM; on human DPP1 enzyme [2], over 15 nM.
As to `CCN1C(=O)Cc2ccc(-c3ccc(C[C@@H](C#N)NC(=O)[C@@H]4CNCCCO4)cc3)cc21` [Compound 32, (2S)—N-[(1S)-1-cyano-2-[4-(1-ethyl-2-oxo-3H-indol-6-yl)phenyl]ethyl]-1,4-oxazepane-2-carboxamide], the IC50 on active mouse DPP1 enzyme is over 20 nM.
As for `Cn1nc(F)c2ccc(-c3ccc(C[C@@H](C#N)NC(=O)[C@@H]4CNCCCO4)cc3)cc21` [Compound A1, (S)—N—((S)-1-cyano-2-(4-(3-fluoro-1-methyl-1H-indazol-6-yl)phenyl)ethyl)-1,4-oxazepane-2-carboxamide], the IC50 on active mouse DPP1 enzyme was over 20 nM; at DPP1 in HL-60 cells [1] it was over 2.5 nM; on human DPP1 enzyme [2], over 15 nM.
On to `CN1CCC(N2CC[C@]3(COCc4ccc(-c5ccc(C[C@@H](C#N)NC(=O)[C@@H]6CNCCCO6)cc5)cc43)C2)CC1` [Compound I8], for which the IC50 on DPP1 in HL-60 cells [1] is over 2.5 nM; at human DPP1 enzyme [2] it was 5 to 15 nM. The molecule also came in with an inhibition at 0.005 µM on DPP1 in HL-60 cells [3] of at most 76.5%. At human DPP1 enzyme [4], this molecule returned an inhibition at 0.01 µM of at least 66.7%.
